Like-named read-outs stand apart in the source and are kept apart here.
How the values were obtained:
Assay type in all cases: cell-based
BRD7 = biological target: T1, BRD7 (Homo sapiens, UniProt Q9NPI1); test: BRD7 degradation, HiBiT-BRD7 KI HEK293 (LgBiT) cells, NanoGlo Lytic Endpoint assay (Assay Protocol 1); conditions: HEK293; Table 3; assay 1; 1 μM compound at 5 h of treatment
T1 construct: HiBiT-BRD7 KI HEK293 (LgBiT) Cells (Promega CS3023410); host or cells: HEK293 (LgBiT), HiBiT knock-in at the BRD7 locus
T1 sequence (Q9NPI1 1-651): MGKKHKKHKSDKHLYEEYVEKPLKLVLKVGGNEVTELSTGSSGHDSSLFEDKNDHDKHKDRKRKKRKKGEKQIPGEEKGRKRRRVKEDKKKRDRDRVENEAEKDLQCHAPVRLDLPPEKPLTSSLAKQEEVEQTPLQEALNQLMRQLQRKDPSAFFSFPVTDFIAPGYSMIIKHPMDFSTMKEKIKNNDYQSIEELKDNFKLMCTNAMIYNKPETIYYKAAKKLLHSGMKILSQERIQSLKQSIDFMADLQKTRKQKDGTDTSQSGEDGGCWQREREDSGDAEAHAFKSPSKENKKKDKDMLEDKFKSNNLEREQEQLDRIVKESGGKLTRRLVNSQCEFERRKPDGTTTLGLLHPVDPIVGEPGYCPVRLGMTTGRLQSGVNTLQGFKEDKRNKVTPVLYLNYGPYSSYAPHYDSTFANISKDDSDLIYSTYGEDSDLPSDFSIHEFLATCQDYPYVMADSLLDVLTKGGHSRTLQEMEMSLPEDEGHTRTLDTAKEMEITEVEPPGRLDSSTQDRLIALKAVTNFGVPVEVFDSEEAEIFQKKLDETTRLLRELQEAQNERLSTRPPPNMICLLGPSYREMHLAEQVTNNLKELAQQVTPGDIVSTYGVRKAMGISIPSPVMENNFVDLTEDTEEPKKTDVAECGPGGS
Description: HiBiT-BRD9 KI HEK293 (LgBiT) Cells (Promega CS3023412) were seeded at 8000 cells per well (38 μL) in sterile white bottom 384 well plates (Invitrogen 164610 or Greiner 781080) and incubated overnight at 37° C. with 5% CO2. The next day, compounds were prepared at 1000× final concentration in DMSO and diluted 1:100 in media (DMEM PAN Biotech P04-03550+10% FBS ATCC 302025). […] The lytic buffer was equilibrated to room temperature for 10-15 min before lytic reagent was prepared by adding substrate (1:50) and LgBit protein (1:100) in lytic buffer. 40 μL lytic reagent mix was added to each well of the cel plate and plates were centrifuged briefly at ˜50g. Plates were incubated with shaking (350 RPM) for 12-24 min before reading using the LUM plus module of a BMG Pherastar FSX. Data was analysed using Dotmatics software and % BRD9 remaining was calculated by normalisation to average data from high and low control wells (DMSO treated cels and no cells respectively).
BRD7 degradation was determined in line with the procedure as outlined above for BRD9, with the exception that HiBiT-BRD7 KI HEK293 (LgBiT) Cells (Promega CS3023410) were seeded at 8000 cells per well (CPW) (36 uL) in sterile white bottom 384 well plates (Invitrogen 164610 or Greiner 781080) and incubated overnight at 37° C. with 5% CO2.

BRD4 = biological target: T2, BRD4 (Homo sapiens, UniProt O60885); test: BRD4 degradation, HiBiT-BRD4 HEK293 CRISPR CPM cells, NanoGlo Lytic Endpoint assay (Assay Protocol 1); conditions: Table 3, assay 1; for Dmax: HEK293, 1 μM compound at 5 h of treatment
T2 construct: HiBiT-BRD4 HEK293 CRISPR CPM (Promega CS302312); host or cells: HEK293, CRISPR-edited (HiBiT at the BRD4 locus)

BRD9 [1] = biological target: T3, BRD9 (Homo sapiens, UniProt Q9H8M2); test: BRD9 degradation, HiBiT-BRD9 KI HEK293 (LgBiT) cells, NanoGlo Lytic Endpoint assay (Assay Protocol 1); conditions: Table 3; assay 1; 5 h of treatment
T3 sequence (Q9H8M2 1-597): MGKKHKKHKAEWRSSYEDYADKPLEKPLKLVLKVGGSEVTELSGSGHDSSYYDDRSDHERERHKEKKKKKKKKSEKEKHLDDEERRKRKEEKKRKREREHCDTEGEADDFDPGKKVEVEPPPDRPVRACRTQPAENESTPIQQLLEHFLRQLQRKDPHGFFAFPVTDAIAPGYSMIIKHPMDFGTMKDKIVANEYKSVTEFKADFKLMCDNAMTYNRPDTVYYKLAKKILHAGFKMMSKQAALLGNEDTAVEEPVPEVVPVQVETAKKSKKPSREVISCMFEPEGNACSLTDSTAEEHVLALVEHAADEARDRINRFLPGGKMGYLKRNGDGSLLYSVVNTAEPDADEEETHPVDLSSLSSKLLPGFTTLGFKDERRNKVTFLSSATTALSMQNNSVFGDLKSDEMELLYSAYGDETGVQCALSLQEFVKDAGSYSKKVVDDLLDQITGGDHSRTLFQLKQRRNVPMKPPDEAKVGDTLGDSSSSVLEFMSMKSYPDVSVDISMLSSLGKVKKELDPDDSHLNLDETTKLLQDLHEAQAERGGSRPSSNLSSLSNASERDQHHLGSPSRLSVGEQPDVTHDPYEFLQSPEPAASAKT

BRD9 [2] = biological target: T3, BRD9; test: as above; conditions: for Dmax at 1 µM / Dmax: HEK293
How it was run: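 HiBiT-tagged BRD9 knock-in HEK293 (LgBiT) cells exposed to compounds for 6 h at 37 °C, 5% CO2. Residual BRD9 measured by HiBiT lytic luminescence. % BRD9 remaining normalised to DMSO-treated cells (high) and no-cell wells (low).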

BRD9 [3] = biological target: T3, BRD9; test: Degradation of BRD9 (IF), immunofluorescence in MV4-11 cells, 24 hours (Assay Protocol 2); design: A suspension of MV4-11 cells (ATCC CRL-9591) was prepared; host or cells: MV4-11; conditions: BRD9 degradation
How it was run: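 MV4-11 cells treated with compound 24 h at 37° C., then fixed, permeabilised and immunostained for BRD9 (anti-BRD9 E4Q3F, Alexa 647 secondary, Hoechst counterstain). High-content imaging quantified nuclear BRD9 signal; % BRD9 remaining normalised to DMSO and 100 nM CFT-8634 controls.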

[4] = Table 2, BRD9 degradation, Assay Protocol 1, 1 μM compound at 6 h of treatment, read-out: Assay 1 Dmax
[5] = Table 3, assay 1, 1 μM compound at 5 h of treatment, read-out: BRD9 Dmax (%)
[6] = Table 2, BRD9 degradation, Assay Protocol 1, 6 h of treatment, read-out: Assay 1 DC50
[7] = Assay protocol 1, BRD9 degradation, read-out: DC50
[8] = Assay protocol 1, BRD9 degradation, read-out: Dmax
[9] = Assay protocol 2, read-out: DC50
[10] = MV4-11, Assay protocol 2, read-out: Dmax
[11] = Table 4, BRD9 degradation, determined according to Assay Protocol 1, read-out: Dmax^1
[12] = MV4-11, Table 4, determined according to Assay Protocol 2, read-out: Dmax^2
[13] = Table 4, determined according to Assay Protocol 2, read-out: DC50^2
[14] = Table 4, BRD9 degradation, determined according to Assay Protocol 1, read-out: DC50^1

Row | SMILES | Dmax (BRD9 [2]; [8]) [%] | Dmax (BRD9 [3]; [10]) [%] | Dmax (BRD9 [2]; [11]) [%] | Dmax (BRD9 [3]; [12]) [%] | DC50 (BRD9 [3]; [13]) [nM] | DC50 (BRD9 [2]; [14]) [nM] | further results
1 | COc1cc(-c2cn(C)c(=O)c(C)c2C)cc(OC)c1CN1CCN(Cc2cccc3c2CCN(C(=O)/C(C#N)=C/c2ncc(C)s2)C3C)CC1 (mixture of isomers) [Compound A29] | – | – | – | – | – | – | Dmax at 1 µM (BRD7): 25 to 40%; Dmax (BRD4): < 25%; DC50 (BRD9 [1]): 1.25 to 10 nM; Dmax at 1 µM (BRD9 [2]; [4]): 40 to 70%; Dmax at 1 µM (BRD9 [2]; [5]): 40 to 70%; DC50 (BRD9 [2]; [6]): 1.25 to 10 nM
2 | COc1cc(-c2cc(C)c(=O)n(C)c2)cc(OC)c1CN1CCN(Cc2cccc3c2CCN(C(=O)/C(C#N)=C/c2cccc(Br)n2)C3C)CC1 (mixture of isomers) [Compound A60] | – | – | – | – | – | – | Dmax at 1 µM (BRD7): < 25%; Dmax (BRD4): 40 to 70%; DC50 (BRD4; 5 h of treatment): 25 to 1000 nM; DC50 (BRD9 [1]): < 1.25 nM; Dmax at 1 µM (BRD9 [2]; [4]): 40 to 70%; Dmax at 1 µM (BRD9 [2]; [5]): 40 to 70%; DC50 (BRD9 [2]; [6]): < 1.25 nM
3 | COc1cc(-c2cn(C)c(=O)c(C)c2C)cc(OC)c1CN1CCN(C(=O)c2cccc(C3CCCN3C(=O)/C(C#N)=C/c3nccs3)c2)CC1 (stereo not shown) [Compound B23] | 70 to 75 | > 75 | – | – | – | – | DC50 (BRD9 [2]; [7]): 10 to 25 nM; DC50 (BRD9 [3]; [9]): 1.25 to 10 nM
4 | COc1cc(-c2cn(C)c(=O)c(C)c2C)cc(OC)c1CN1CCN(Cc2cccc(C3CCCN3C(=O)/C(C#N)=C/c3cccc(C(F)(F)F)n3)c2)CC1 (stereo not shown) [Compound B26] | > 75 | > 75 | – | – | – | – | DC50 (BRD9 [2]; [7]): 1.25 to 10 nM; DC50 (BRD9 [3]; [9]): < 1.25 nM
5 | COc1ccc([C@@H]2CN(C(=O)/C(C#N)=C/c3nccs3)C[C@H]2C(=O)N2CCN(Cc3c(OC)cc(-c4cn(C)c(=O)c(C)c4C)cc3OC)CC2)cc1 [Compound B27] | 40 to 70 | > 75 | – | – | – | – | DC50 (BRD9 [3]; [9]): 1.25 to 10 nM
6 | COc1cc(-c2cn(C)c(=O)c(C)c2C)cc(OC)c1CN1CCN(C(=O)[C@@H]2CN(C(=O)/C(C#N)=C/c3nccs3)C[C@H]2c2ccccc2)CC1 [Compound B28] | 25 to 40 | 40 to 70 | – | – | – | – | –
7 | COc1cc(-c2cn(C)c(=O)c(C)c2C)cc(OC)c1CN1CCN(Cc2cccc(C3CCCN3C(=O)/C(C#N)=C/c3nc(C(F)(F)F)cs3)c2)CC1 (stereo not shown) [Compound B56] | > 75 | > 75 | – | – | – | – | DC50 (BRD9 [2]; [7]): < 1.25 nM; DC50 (BRD9 [3]; [9]): < 1.25 nM
8 | CCCC(c1ccc(C(=O)N(C)CCC(=O)N2CCN(Cc3c(OC)cc(-c4cn(C)c(=O)c(C)c4C)cc3OC)CC2)cc1)N(C)C(=O)/C(C#N)=C/c1nccs1 (stereo not shown) [Compound B180] | 40 to 70 | 40 to 70 | – | – | – | – | –
9 | COc1cc(-c2cn(C)c(=O)c(C)c2C)cc(OC)c1CN1CCN(C(=O)C2CCCN(C(=O)/C(C#N)=C/c3nccs3)C2)CC1 (stereo not shown) [Compound B205] | – | – | 30 to 50 | 50 to 70 | 25 to 200 | – | –
10 | COc1cc(-c2cn(C)c(=O)c(C)c2C)cc(OC)c1CN1CCN(C(=O)C2CCCN(C(=O)/C(C#N)=C/C(C)(C)C)C2)CC1 (stereo not shown) [Compound B206] | – | – | > 70 | 50 to 70 | 25 to 200 | 25 to 200 | –
11 | COc1cc(-c2cn(C)c(=O)c(C)c2C)cc(OC)c1CN1CCN(C(=O)C2CC(C(C)C)CN(C(=O)/C(C#N)=C/C(C)(C)C)C2)CC1 (stereo not shown) [Compound B207] | – | – | > 70 | > 70 | 25 to 200 | 25 to 200 | –
12 | COc1ccc(C2CC(C(=O)N3CCN(Cc4c(OC)cc(-c5cn(C)c(=O)c(C)c5C)cc4OC)CC3)CN(C(=O)/C(C#N)=C/C(C)(C)C)C2)cc1 (stereo not shown) [Compound B208] | – | – | > 70 | > 70 | < 25 | < 25 | –
13 | COc1cc(-c2cn(C)c(=O)c(C)c2C)cc(OC)c1CN1CCN(C(=O)[C@@H]2CN(C(=O)/C(C#N)=C/c3nccs3)C[C@H]2C2CCCCC2)CC1 [Compound B209] | – | – | 30 to 50 | > 70 | 25 to 200 | > 200 | –
14 | COc1cc(-c2cn(C)c(=O)c(C)c2C)cc(OC)c1CN1CCN(C(=O)[C@@H]2CN(C(=O)/C(C#N)=C/C(C)(C)C)C[C@H]2C2CCCCC2)CC1 [Compound B210] | – | – | 50 to 70 | 50 to 70 | 25 to 200 | 25 to 200 | –
15 | COc1cc(-c2cn(C)c(=O)c(C)c2C)cc(OC)c1CN1CCN(C(=O)[C@@H]2CN(C(=O)/C(C#N)=C/c3ccc(F)cc3)C[C@H]2C2CCCCC2)CC1 [Compound B211] | – | – | > 70 | 50 to 70 | > 200 | > 200 | –
16 | COc1cc(-c2cn(C)c(=O)c(C)c2C)cc(OC)c1CN1CCN(C(=O)[C@@H]2CN(C(=O)/C(C#N)=C/C(C)(C)C)C[C@H]2C(C)C)CC1 [Compound B212] | – | – | 50 to 70 | 50 to 70 | 25 to 200 | 25 to 200 | –
17 | COc1cc(-c2cn(C)c(=O)c(C)c2C)cc(OC)c1CN1CCN(C(=O)[C@@H]2CN(C(=O)/C(C#N)=C/c3nccs3)C[C@H]2c2cccc(C)c2)CC1 [Compound B213] | – | – | 30 to 50 | 50 to 70 | > 200 | – | –
18 | COc1cc(-c2cn(C)c(=O)c(C)c2C)cc(OC)c1CN1CCN(Cc2cccc3c2CCN(C(=O)/C(C#N)=C/C(C)(C)C)C3(C)C)C2(CC2)C1 [Compound C9, (E/Z)-2-(5-((7-(2,6-dimethoxy-4-(1,4,5-trimethyl-6-oxo-1,6-dihydropyridin-3-yl)benzyl)-4,7-diazaspiro[2.5]octan-4-yl)methyl)-1,1-dimethyl-1,2,3,4-tetrahydroisoquinoline-2-carbonyl)-4,4-dimethylpent-2-enenitrile] | 70 to 75 | 40 to 70 | – | – | – | – | DC50 (BRD9 [2]; [7]): 25 to 1000 nM; DC50 (BRD9 [3]; [9]): 25 to 1000 nM
